Entries after “also recorded” stand apart in the source; their conditions may differ. Where two headings read alike, the source gives them in different places.

For one experiment, the system named is A549 lung cancer. Kind of experiment: A549 lung cancer growth (crystal violet, 7 days). Particulars: 7 days of growth. It counts as cell-based. The method, then:
(§1) Cells were plated at 1000 cells per well and 24 h later treated with GRG compounds. After 7 days of growth, tumor cells were fixed with 4% paraformaldehyde, stained with 0.5% crystal violet in methanol and lysed in SDS. The absorbance of six samples treated with each compound or DMSO control was read at 570 nm. The error bars represent the Standard Deviation of these measurements

Experiment [1] relates to PANC1 pancreatic cancer cells. As to the kind of experiment: Growth inhibition of PANC1 pancreatic cancer cells. It counts as cell-based. The method, then: (§2) Cell growth assay: Tumor cells were seeded into 48 well plates (1000 cells/well) and treated with varied agents. The Incucyte real-time imaging system (Incucyte) was used to measure cell proliferation using a non-label cell monolayer confluence approach. The images were captured every 12 h. Graphs were generated using an integrated confluence metric as an alternative for cell numbers. At the end of the study cell growth was visualized by crystal violet staining.
Because of ease of growth, PANC1 pancreatic cancer cells were used to test the activity of derivatives of VBT-5445 (FIG. 14). […] Using a doxycycline inducible Pim kinase vector in these tumor cells, this inhibition of phosphorylation was proportional to the level of Pim in these cells (FIG. 9). […] Inhibition of mTORC1 is known to stimulate the feedback activation of mTORC2 leading to AKT phosphorylation. […] The effect of these compounds on mTORC1 and 2 was still evident in PC3-LN4 cells that contained a knockout (KO) using CRISPR/CAS9 of either TSC2 or DEPDC5 (FIG. 12, lanes 4-9). TSC2 KO activated the Rheb GTPase while DEPDC5 KO activated the RAG GTPase both of which stimulate mTORC1 activity. Thus, GRG compounds were capable of inhibiting mTORC1 activity even when this kinase was highly activated.

The next experiment deals with Prostate Cancer Growth. As to the kind of experiment: SAR studies using inhibition of prostate cancer growth as a readout. It counts as cell-based. Particulars: SAR by substituent position.
The next experiment deals with Pim1 and EDC3 binding (Homo sapiens, UniProt P11309). Kind of experiment: In vitro co-precipitation / co-immunoprecipitation of EDC3 with Pim1. The settings on record: VBT-5445 at concentrations higher than 1 μM, listed as VBT 1-34. The method, then: (§3) FIGS. 7A-7I show inhibition of VBT5445 (VBT) on Pim1 and EDC3 binding and phosphorylation. FIG. 7A: In vitro co-precipitation (Co-PPT) assay was performed with recombinant EDC3 and biotinylated Pim1 using Streptavidin beads with increasing concentrations of the Pim inhibitor VBT5445 (VBT). FIG. 7B: Kinase assays were performed with recombinant EDC3 and Pim1 with increasing concentrations of VBT. FIG. 7C: Cell lysates from PC3-LN4 cells cultured with DMSO, 10 μM VBT, 3 μM AZD5363 (AKTi) and the combination for 6 hrs were subjected to western blotting (WB). […] WBs were performed using the indicated antibodies. FIG. 7E: PC3-LN4 cells were seeded into 48 well plate and incubated with either DMSO, VBT, AZD5363 or the combination, for 4.5 days. A real-time imaging system (IncuCyte™) was used to measure cell proliferation using a non-label cell monolayer confluence approach. FIG. 7F-7H: GFP image in PC3 LN4 GFP EDC3 expressing cells treated with PIMi: VBT (5 μM) and VBT (5 μM)+AZD5363 (3 μM) for 6 hrs.

In experiment [2] the test system is PC3-LN4 cells. As to the kind of experiment: Cell growth assay (IncuCyte) in PC3-LN4 prostate cancer cells. The settings on record: combination with AZD5363 or BKM120. Type of experiment: cell-based, human. The method, then:
as §3, §2

The target of another experiment is Pim1 (Homo sapiens, UniProt P11309). As to the kind of experiment: Kinase assay with purified Pim1 and EDC3 (EDC3 S161 phosphorylation). Particulars: in vitro, FIG. 8. Type of experiment: biochemical. The method, then:
as §3
Computer screening followed by surface plasmon resonance (SPR) yielded a lead compound VBT-5445 that can interact with the Pim-1 protein kinase. Enhancer of mRNA Decapping 3 (EDC3) is a substrate of the Pim kinase that regulates the decapping of messenger RNA, and its activity is modulated by Pim mediated phosphorylation. […]

In experiment [3] the test system is PC3-LN4 cells. As to the kind of experiment: Western blotting of PC3-LN4 cell lysates. Type of experiment: cell-based, human. The method, then:
as §3, with “FIG.” for “FIGS. 7A-7I show inhibition of VBT5445 (VBT) on Pim1 and EDC3 binding and phosphorylation. FIG.”
Extracts were subjected to Western blotting with the indicated antibodies.
(§4) Immunoblotting: Western blots were performed as described previously. Briefly, protein lysates (30 μg) were subjected to SDS-PAGE and transferred to nitrocellulose membranes. After blocking with 5% milk in TBST buffer for 30 min at room temperature, the membranes were incubated overnight at 4° C. with the Indicated primary antibody in 3% BSA in TBST. Specific proteins were detected with the corresponding HRP conjugated secondary antibody using enhanced chemiluminescence (GE Lifesciences, Piscataway, NJ).

A further experiment has as its system Pim kinase. As to the kind of experiment: Pim substrate phosphorylation in LNCaP prostate cancer cells (Western blot). It counts as cell-based. The settings on record: serum-starved conditions. The method, then:
Right: LNCaP and LNCaP stably expressed Pim1 cells were treated with DMSO and GRG-1-34 ([…]) without FBS medium for 6 h. Lysates (25 μg) were subjected to western blotting with the antibodies for P-IRS1 (S1101), IRS1, P-elF4B (S406), elF4B, P-EDC3 (S161), EDC3, Pim1, and β-Actin.
as §4
Background: In western blotting, separated proteins are transferred to a membrane and probed.

The test system of a further experiment is DU145 prostate cancer. As to the kind of experiment: DU145 prostate cancer growth (crystal violet, 7 days). It counts as cell-based. The settings on record: 7 days of growth. The method, then:
as §1
Cell growth was measured as in FIG. 17.

Sequence of Pim1 and EDC3 binding (P11309 whole entry): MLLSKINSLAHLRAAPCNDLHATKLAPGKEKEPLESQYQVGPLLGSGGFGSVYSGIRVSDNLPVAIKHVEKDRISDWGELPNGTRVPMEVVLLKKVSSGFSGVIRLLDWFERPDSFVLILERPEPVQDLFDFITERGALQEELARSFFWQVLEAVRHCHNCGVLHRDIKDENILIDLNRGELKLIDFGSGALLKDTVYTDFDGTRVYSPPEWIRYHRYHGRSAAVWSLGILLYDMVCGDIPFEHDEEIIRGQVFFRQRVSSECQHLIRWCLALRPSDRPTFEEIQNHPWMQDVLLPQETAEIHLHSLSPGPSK
Sequence of Pim1 (P11309 whole entry): as above

Consider `O=c1c(CNCc2cc(Br)ccn2)cc2ccc(Cl)cc2n1CCOc1ccccc1` [GRG-1-34, 3-((((4-bromopyridin-2-yl)methyl)amino)methyl)-7-chloro-1-(2-phenoxyethyl) quinolin-2 (1H)-one], for which the “A549 lung cancer growth” value with A549 lung cancer is recorded as “Inhibition”; in the experiment with A549 lung cancer (listed as VBT 1-34) it was “shows activity”. Further, the figures for the “growth inhibitory activity against PANC1 pancreatic cancer cells” value in experiment [1] and in experiment [1] (listed as VBT 1-34) were “most active” and “inhibits the growth; also recorded: shows activity”, respectively. Also, in the experiment on Prostate Cancer Growth, the “Activity (inhibition of prostate cancer growth)” value came to 6 active compounds. In addition, the “co-immunoprecipitation of EDC3 with Pim” value at Pim1 and EDC3 binding is reported as “block the co-immunoprecipitation of EDC3 with Pim; also recorded: blocks co-immunoprecipitation of EDC3 with Pim”. In addition, in the experiment on PC3-LN4 cells [2], the “prostate cancer (PC3-LN4) growth, in combination with AKT/PI3K inhibitor” value is given as “enhanced”. In addition, the “inhibition of the ability of Pim to phosphorylate EDC3” value on Pim1 was “inhibit the ability of Pim to phosphorylate EDC3”. Further, the “cellular level of Pim kinases” value in the experiment with PC3-LN4 cells [3] is “decreases”. For the same compound, in the experiment on PC3-LN4 cells [3], the “cellular level of c-Myc protein” value was “decreases”. For the same compound, the “mTORC1 activity: phosphorylation of the S6 protein” value with PC3-LN4 cells [3] is “inhibited the phosphorylation of the mTORC1 substrate S6 protein”; with PC3-LN4 cells [3] (listed as VBT 1-34) it was “decreases”. Moreover, the “phosphorylation of AKT on serine 473” value in the experiment with PC3-LN4 cells [3] is “increased the phosphorylation of AKT on serine 473”. Also, the results for the “Pim kinase activity: Pim substrate phosphorylation (IRS1, elF4B, EDC3)” value with Pim kinase, in the experiment with Pim kinase (listed as GRG 1-34) and in the experiment on Pim kinase (listed as VBT 1-34) were “decreased Pim substrate phosphorylation”, “suppresses Pim kinase activity” and “inhibits Pim activity”, respectively. Further, the “DU145 prostate cancer growth” value in the experiment on DU145 prostate cancer is reported as “Inhibition”; in the experiment on DU145 prostate cancer (listed as VBT 1-34), “shows activity”.
